Laboratory results as given in ChEMBL document CHEMBL3885861, “Open TG-GATES”.

Species on record: Rattus norvegicus
Experiment: Open TG-GATES - Regimen: Single
Assay type: toxicity, organism-based, Sprague-Dawley
Parameters: regimen Single, gender Male, age 6 weeks
Conditions: in vivo, po, route gavage; for APTT / Bas / Eos / Fbg / Hb / Ht / Lym / MCH / MCHC / MCV / Mono / Neu / PT / Plat / RBC / Ret / WBC: tissue Blood; for KIDNEY_L / KIDNEY_R / KIDNEY_TOTAL: tissue Kidney; for LIVER: tissue Liver
[1] = 100 mg/kg, 3 h, tissue Plasma, dose level Low
[2] = 100 mg/kg, 6 h, tissue Plasma, dose level Low
[3] = 100 mg/kg, 9 h, tissue Plasma, dose level Low
[4] = 100 mg/kg, 24 h, dose level Low
[5] = 100 mg/kg, 24 h, tissue Plasma, dose level Low

**Q.** Which results are given for `C[C@H](CS)C(=O)N1CCC[C@H]1C(=O)O` [CAPTOPRIL]?
**A.** gamma-GTP (0 mg/kg, 24 h, tissue Plasma, dose level Control): 1 IU/L; TERMINAL_BW (100 mg/kg, 3 h, dose level Low): 224.3 g; APTT (100 mg/kg, 3 h, dose level Low): 16.3 s; Bas (100 mg/kg, 3 h, dose level Low): 0%; Eos (100 mg/kg, 3 h, dose level Low): 1%; Fbg (100 mg/kg, 3 h, dose level Low): 207 mg/dL; Hb (100 mg/kg, 3 h, dose level Low): 13.1 g/dL; Ht (100 mg/kg, 3 h, dose level Low): 40.2%; Lym (100 mg/kg, 3 h, dose level Low): 82.2%; MCH (100 mg/kg, 3 h, dose level Low): 21.1 pg; MCHC (100 mg/kg, 3 h, dose level Low): 32.7%; MCV (100 mg/kg, 3 h, dose level Low): 64.4 fL; Mono (100 mg/kg, 3 h, dose level Low): 4.8%; Neu (100 mg/kg, 3 h, dose level Low): 12.2%; PT (100 mg/kg, 3 h, dose level Low): 11.9 s; Plat (100 mg/kg, 3 h, dose level Low): 123.2 x10_4/uL; RBC (100 mg/kg, 3 h, dose level Low): 624.2 x10_4/ul; Ret (100 mg/kg, 3 h, dose level Low): 7.4%; KIDNEY_L (100 mg/kg, 3 h, dose level Low): 1 g; KIDNEY_R (100 mg/kg, 3 h, dose level Low): 1 g; KIDNEY_TOTAL (100 mg/kg, 3 h, dose level Low): 2.1 g; ALP [1]: 996 IU/L; ALT [1]: 35.6 IU/L; AST [1]: 67 IU/L; BUN [1]: 13.8 mg/dL; CRE [1]: 0.5 mg/dL; DBIL [1]: 0.008 mg/dL; GLC [1]: 205.2 mg/dL; IP [1]: 9.7 mg/dL; K [1]: 4.9 meq/L; LDH [1]: 113.6 IU/L; Na [1]: 137.8 meq/L; PL [1]: 131.8 mg/dL; RALB [1]: 3.6 g/dL; TBIL [1]: 0.4 mg/dL; TC [1]: 70.4 mg/dL; TG [1]: 68 mg/dL; TP [1]: 5.5 g/dL; gamma-GTP [1]: 2 IU/L; TERMINAL_BW (100 mg/kg, 6 h, dose level Low): 225.5 g; APTT (100 mg/kg, 6 h, dose level Low): 16.3 s; Bas (100 mg/kg, 6 h, dose level Low): 0%; Eos (100 mg/kg, 6 h, dose level Low): 1%; Hb (100 mg/kg, 6 h, dose level Low): 12.9 g/dL; Ht (100 mg/kg, 6 h, dose level Low): 39.5%; Lym (100 mg/kg, 6 h, dose level Low): 76.4%; MCH (100 mg/kg, 6 h, dose level Low): 21.8 pg; MCHC (100 mg/kg, 6 h, dose level Low): 32.8%; MCV (100 mg/kg, 6 h, dose level Low): 66.5 fL; Mono (100 mg/kg, 6 h, dose level Low): 5.8%; Neu (100 mg/kg, 6 h, dose level Low): 17%; PT (100 mg/kg, 6 h, dose level Low): 12.2 s; Plat (100 mg/kg, 6 h, dose level Low): 113.6 x10_4/uL; RBC (100 mg/kg, 6 h, dose level Low): 595.2 x10_4/ul; Ret (100 mg/kg, 6 h, dose level Low): 7.9%; WBC (100 mg/kg, 6 h, dose level Low): 126.2 x10_2/uL; KIDNEY_L (100 mg/kg, 6 h, dose level Low): 1.1 g; KIDNEY_R (100 mg/kg, 6 h, dose level Low): 1.1 g; KIDNEY_TOTAL (100 mg/kg, 6 h, dose level Low): 2.2 g; ALP [2]: 794.8 IU/L; ALT [2]: 30.8 IU/L; AST [2]: 55.6 IU/L; BUN [2]: 17.4 mg/dL; CRE [2]: 0.6 mg/dL; DBIL [2]: 0.028 mg/dL; GLC [2]: 192.4 mg/dL; IP [2]: 9.6 mg/dL; K [2]: 4.9 meq/L; LDH [2]: 73.8 IU/L; Na [2]: 138.6 meq/L; PL [2]: 130.6 mg/dL; RALB [2]: 3.7 g/dL; TBIL [2]: 0.4 mg/dL; TC [2]: 69.8 mg/dL; TG [2]: 62.6 mg/dL; TP [2]: 5.3 g/dL; gamma-GTP [2]: 1.6 IU/L; TERMINAL_BW (100 mg/kg, 9 h, dose level Low): 220.6 g; APTT (100 mg/kg, 9 h, dose level Low): 16.3 s; Bas (100 mg/kg, 9 h, dose level Low): 0%; Eos (100 mg/kg, 9 h, dose level Low): 1%; Fbg (100 mg/kg, 9 h, dose level Low): 205.8 mg/dL; Hb (100 mg/kg, 9 h, dose level Low): 12.8 g/dL; Ht (100 mg/kg, 9 h, dose level Low): 38.8%; Lym (100 mg/kg, 9 h, dose level Low): 74%; MCH (100 mg/kg, 9 h, dose level Low): 21.6 pg; MCHC (100 mg/kg, 9 h, dose level Low): 33%; MCV (100 mg/kg, 9 h, dose level Low): 65.6 fL; Mono (100 mg/kg, 9 h, dose level Low): 5.4%; Neu (100 mg/kg, 9 h, dose level Low): 19.2%; PT (100 mg/kg, 9 h, dose level Low): 12.1 s; Plat (100 mg/kg, 9 h, dose level Low): 119.2 x10_4/uL; RBC (100 mg/kg, 9 h, dose level Low): 591.8 x10_4/ul; Ret (100 mg/kg, 9 h, dose level Low): 8.2%; KIDNEY_L (100 mg/kg, 9 h, dose level Low): 1 g; KIDNEY_R (100 mg/kg, 9 h, dose level Low): 1 g; KIDNEY_TOTAL (100 mg/kg, 9 h, dose level Low): 2 g; LIVER (100 mg/kg, 9 h, dose level Low): 9 g; ALP [3]: 891.4 IU/L; ALT [3]: 30.6 IU/L; AST [3]: 59.2 IU/L; BUN [3]: 13.4 mg/dL; CRE [3]: 0.4 mg/dL; DBIL [3]: 0.084 mg/dL; GLC [3]: 202.4 mg/dL; K [3]: 4.7 meq/L; LDH [3]: 71 IU/L; Na [3]: 138.6 meq/L; PL [3]: 122.4 mg/dL; RALB [3]: 3.6 g/dL; TBIL [3]: 0.3 mg/dL; TC [3]: 65.2 mg/dL; TG [3]: 55.8 mg/dL; TP [3]: 5.2 g/dL; gamma-GTP [3]: 1.8 IU/L; TERMINAL_BW [4]: 234.4 g; APTT [4]: 17.2 s; Bas [4]: 0%; Eos [4]: 1.4%; Hb [4]: 12.8 g/dL; Ht [4]: 38.4%; Lym [4]: 71.8%; MCH [4]: 21.1 pg; MCHC [4]: 33.2%; MCV [4]: 63.6 fL; Mono [4]: 6.4%; Neu [4]: 20%; PT [4]: 11.6 s; Plat [4]: 114.1 x10_4/uL; RBC [4]: 604.4 x10_4/ul; Ret [4]: 8.7%; WBC [4]: 82.6 x10_2/uL; KIDNEY_L [4]: 1.1 g; KIDNEY_R [4]: 1.1 g; KIDNEY_TOTAL [4]: 2.3 g; LIVER [4]: 11.3 g; ALT [5]: 40.8 IU/L; AST [5]: 68.8 IU/L; BUN [5]: 15.8 mg/dL; CRE [5]: 0.6 mg/dL; Ca [5]: 11.1 mg/dL; DBIL [5]: 0.058 mg/dL; GLC [5]: 189.4 mg/dL; IP [5]: 8.5 mg/dL; K [5]: 4.6 meq/L; LDH [5]: 113 IU/L; Na [5]: 139 meq/L; PL [5]: 147.6 mg/dL; RALB [5]: 4 g/dL; TBIL [5]: 0.3 mg/dL; TC [5]: 78.8 mg/dL; TG [5]: 92.8 mg/dL; TP [5]: 5.8 g/dL
